From patent US10980889B1 (Revolution Medicines, Inc., priority 2018, dated 2021)

Key:
P-P70S6K (T389) = assay: Cell based AlphaLISA assay, inhibition of P-P70S6K (T389) in MDA-MB-468 cells (mTORC1 substrate); conditions: AlphaLisa, two to four hours at 37° C.; for IC50: Homo sapiens, 4 h, read-out: pIC50 for Inhibition of mTORC1 and mTORC2 Substrate Phosphorylation p-P70S6K-(T389) (converted)
Method: (§1) Cell Based AlphaLISA Assays For Determining IC50 For Inhibition of P-Akt (S473), P-4E-BP1(T37/46), and P-P70S6K (T389) in MDA-MB-468 Cells
(§2) mTOR Kinase Cellular Assay
(§3) To measure functional activity of mTORC1 and mTORC2 in cells the phosphorylation of 4EBPT (Thr37/46) and P70S6K (Thr389), and AKT1/2/3 (Ser473) was monitored using AlphaLisa SureFire Ultra Kits (Perkin Elmer). […] Incubations were terminated by removal of the assay buffer and addition of lysis buffer provided with the assay kit. Samples were processed according to the manufacturer's instructions. The Alpha signal from the respective phosphoproteinswas measured in duplicate using a microplate reader (Envision, Perkin-Elmer or Spectramax M5, Molecular Devices). Inhibitor concentration response curves were analyzed using normalized IC50 regression curve filling with control based normalization.

P-4E-BP1 (T37/46) = assay: Cell based AlphaLISA assay, inhibition of P-4E-BP1 (T37/46) in MDA-MB-468 cells (mTORC1 substrate); conditions: AlphaLisa, two to four hours at 37° C.; for IC50: Homo sapiens, 4 h, read-out: pIC50 for Inhibition of mTORC1 and mTORC2 Substrate Phosphorylation P-4E-BP1-(T37/46) (converted)
Method: as §1, §2, §3

P-Akt (S473) = assay: Cell based AlphaLISA assay, inhibition of P-Akt (S473) in MDA-MB-468 cells (mTORC2 substrate); conditions: AlphaLisa, two to four hours at 37° C.; for IC50: Homo sapiens, 4 h, read-out: pIC50 for Inhibition of mTORC1 and mTORC2 Substrate Phosphorylation p-AKT1/2/3-(S473) (converted)
Method: as §1, §2, §3

Row | Structure (SMILES) | IC50 (P-P70S6K (T389)) [nM] | IC50 (P-4E-BP1 (T37/46)) [nM] | IC50 (P-Akt (S473)) [nM] | pIC50 for Inhibition of mTORC1 and mTORC2 Substrate Phosphorylation p-P70S6K-(T389) (P-P70S6K (T389)) | pIC50 for Inhibition of mTORC1 and mTORC2 Substrate Phosphorylation P-4E-BP1-(T37/46) (P-4E-BP1 (T37/46)) | pIC50 for Inhibition of mTORC1 and mTORC2 Substrate Phosphorylation p-AKT1/2/3-(S473) (P-Akt (S473))
1 | CO[C@H]1C[C@@H]2CC[C@@H](C)[C@@](O)(O2)C(=O)C(=O)N2CCCC[C@H]2C(=O)O[C@H]([C@H](C)C[C@@H]2CC[C@@H](OC(=O)NCCOCCOCCOCCOCCOCCOCCOCCOCC(=O)N3CCc4cc(Cn5nc(-c6ccc7oc(N)nc7c6)c6c(N)ncnc65)ccc4C3)[C@H](OC)C2)C[C@@H](O)[C@H](C)/C=C(\C)[C@@H](O)[C@@H](OC)C(=O)[C@H](C)C[C@H](C)/C=C/C=C/C=C/1C [Example 28] | < 1 | < 3.16 | > 1000 | – | – | –
2 | CO[C@H]1C[C@@H]2CC[C@@H](C)[C@@](O)(O2)C(=O)C(=O)N2CCCC[C@H]2C(=O)O[C@H]([C@H](C)C[C@@H]2CC[C@@H](OC(=O)NCCOCCOCCOCCOCCOCCOCCOCCOCCC(=O)N3CCc4cc(Cn5nc(-c6ccc7oc(N)nc7c6)c6c(N)ncnc65)ccc4C3)[C@H](OC)C2)C[C@H](N=[N+]=[N-])[C@H](C)/C=C(\C)[C@@H](O)[C@@H](OC)C(=O)[C@H](C)C[C@H](C)/C=C/C=C/C=C/1C [Example 30] | < 1 | < 3.16 | 3.16 to 31.6 | – | – | –
3 | CO[C@H]1C[C@@H]2CC[C@@H](C)[C@@](O)(O2)C(=O)C(=O)N2CCCC[C@H]2C(=O)O[C@H]([C@H](C)C[C@@H]2CC[C@@H](OC(=S)NCCOCCOCCOCCOCCOCCOCCOCCOCCC(=O)N3CCc4cc(Cn5nc(-c6ccc7oc(N)nc7c6)c6c(N)ncnc65)ccc4C3)[C@H](OC)C2)C[C@@H](O)[C@H](C)/C=C(\C)[C@@H](O)[C@@H](OC)C(=O)[C@H](C)C[C@H](C)/C=C/C=C/C=C/1C [Example 33] | < 1 | < 3.16 | > 1000 | – | – | –
4 | CO[C@H]1C[C@@H]2CC[C@@H](C)[C@@](O)(O2)C(=O)C(=O)N2CCCC[C@H]2C(=O)O[C@H]([C@H](C)C[C@@H]2CC[C@@H](OC(=S)NCCOCCOCCOCCOCCOCCOCCOCCOCCC(=O)N3CCc4cc(Cn5nc(-c6ccc7oc(N)nc7c6)c6c(N)ncnc65)ccc4C3)[C@H](OC)C2)C[C@@H](OC)[C@H](C)/C=C(\C)[C@@H](O)[C@@H](OC)C(=O)[C@H](C)C[C@H](C)/C=C/C=C/C=C/1C [Example 34] | < 1 | > 1000 | > 1000 | – | – | –
5 | CO[C@H]1C[C@@H]2CC[C@@H](C)[C@@](O)(O2)C(=O)C(=O)N2CCCC[C@H]2C(=O)O[C@H]([C@H](C)C[C@@H]2CC[C@@H](OC(=O)NCCOCCOCCOCCOCCOCCOCCOCCOCCC(=O)NCc3ccc(Cn4nc(-c5ccc6oc(N)nc6c5)c5c(N)ncnc54)cc3)[C@H](OC)C2)CC(=O)[C@H](C)/C=C(\C)[C@@H](O)[C@@H](OC)C(=O)[C@H](C)C[C@H](C)/C=C/C=C/C=C/1C [Example 35] | < 1 | < 3.16 | 3.16 to 31.6 | – | – | –
6 | CO[C@H]1C[C@@H]2CC[C@@H](C)[C@@](O)(O2)C(=O)C(=O)N2CCCC[C@H]2C(=O)O[C@H]([C@H](C)C[C@@H]2CC[C@@H](OC(=O)NCCOCCOCCOCCOCCOCCOCCOCCOCCC(=O)NCc3ccc(Cn4nc(-c5ccc6oc(N)nc6c5)c5c(N)ncnc54)cc3)[C@H](OC)C2)C[C@@H](O)[C@H](C)/C=C(\C)[C@@H](O)[C@@H](OC)C(=O)[C@H](C)C[C@H](C)/C=C/C=C/C=C/1C [Example 36] | < 1 | < 3.16 | > 1000 | – | – | –
7 | CO[C@H]1C[C@@H]2CC[C@@H](C)[C@@](O)(O2)C(=O)C(=O)N2CCCC[C@H]2C(=O)O[C@H]([C@H](C)C[C@@H]2CC[C@@H](OC(=O)NCCOCCOCCOCCOCCOCCOCCOCCOCCC(=O)NCc3ccc(Cn4nc(-c5ccc6oc(N)nc6c5)c5c(N)ncnc54)cc3)[C@H](OC)C2)C[C@@H](OC)[C@H](C)/C=C(\C)[C@@H](O)[C@@H](OC)C(=O)[C@H](C)C[C@H](C)/C=C/C=C/C=C/1C [Example 37] | < 1 | < 3.16 | > 1000 | – | – | –
8 | CO[C@H]1C[C@@H]2CC[C@@H](C)[C@@](O)(O2)C(=O)C(=O)N2CCCC[C@H]2C(=O)O[C@H]([C@H](C)C[C@@H]2CC[C@@H](OC(=O)NCCOCCOCCOCCOCCOCCOCCOCCOCCC(=O)NCc3ccc(Cn4nc(-c5ccc6oc(N)nc6c5)c5c(N)ncnc54)cc3)[C@H](OC)C2)C[C@H](N=[N+]=[N-])[C@H](C)/C=C(\C)[C@@H](O)[C@@H](OC)C(=O)[C@H](C)C[C@H](C)/C=C/C=C/C=C/1C [Example 38] | < 1 | > 1000 | > 1000 | – | – | –
9 | CO[C@H]1C[C@@H]2CC[C@@H](C)[C@@](O)(O2)C(=O)C(=O)N2CCCC[C@H]2C(=O)O[C@H]([C@H](C)C[C@@H]2CC[C@@H](OC(=S)NCCOCCOCCOCCOCCOCCOCCOCCOCCC(=O)NCc3ccc(Cn4nc(-c5ccc6oc(N)nc6c5)c5c(N)ncnc54)cc3)[C@H](OC)C2)C[C@@H](O)[C@H](C)/C=C(\C)[C@@H](O)[C@@H](OC)C(=O)[C@H](C)C[C@H](C)/C=C/C=C/C=C/1C [Example 39] | < 1 | < 3.16 | < 3.16 | – | – | –
10 | CO[C@H]1C[C@@H]2CC[C@@H](C)[C@@](O)(O2)C(=O)C(=O)N2CCCC[C@H]2C(=O)O[C@H]([C@H](C)C[C@@H]2CC[C@@H](OC(=O)NCCOCCOCCOCCOCCOCCOCCOCCOCCC(=O)NCCS(=O)(=O)c3ccc(C(=O)N4CCOc5ccc(-c6ccc(N)nc6)cc5C4)c(C)c3)[C@H](OC)C2)CC(=O)[C@H](C)/C=C(\C)[C@@H](O)[C@@H](OC)C(=O)[C@H](C)C[C@H](C)/C=C/C=C/C=C/1C [Example 40] | < 1 | < 3.16 | 3.16 to 31.6 | – | – | –
11 | CO[C@H]1C[C@@H]2CC[C@@H](C)[C@@](O)(O2)C(=O)C(=O)N2CCCC[C@H]2C(=O)O[C@H]([C@H](C)C[C@@H]2CC[C@@H](OC(=O)NCCOCCOCCOCCOCCOCCOCCOCCOCCC(=O)NCCS(=O)(=O)c3ccc(C(=O)N4CCOc5ccc(-c6ccc(N)nc6)cc5C4)c(C)c3)[C@H](OC)C2)C[C@@H](O)[C@H](C)/C=C(\C)[C@@H](O)[C@@H](OC)C(=O)[C@H](C)C[C@H](C)/C=C/C=C/C=C/1C [Example 41] | < 1 | < 3.16 | > 1000 | – | – | –
12 | CO[C@H]1C[C@@H]2CC[C@@H](C)[C@@](O)(O2)C(=O)C(=O)N2CCCC[C@H]2C(=O)O[C@H]([C@H](C)C[C@@H]2CC[C@@H](OC(=O)NCCOCCOCCOCCOCCOCCOCCOCCOCCC(=O)NCCS(=O)(=O)c3ccc(C(=O)N4CCOc5ccc(-c6ccc(N)nc6)cc5C4)c(C)c3)[C@H](OC)C2)C[C@@H](OC)[C@H](C)/C=C(\C)[C@@H](O)[C@@H](OC)C(=O)[C@H](C)C[C@H](C)/C=C/C=C/C=C/1C [Example 42] | < 1 | < 3.16 | 3.16 to 31.6 | – | – | –
13 | CO[C@H]1C[C@@H]2CC[C@@H](C)[C@@](O)(O2)C(=O)C(=O)N2CCCC[C@H]2C(=O)O[C@H]([C@H](C)C[C@@H]2CC[C@@H](OC(=O)N3CCc4nc(N5CCN(c6ncc(C(=O)N7CCN(c8ncc(C(=O)N9CCc%10cc(Cn%11nc(-c%12cnc%13oc(N)nc%13c%12)c%12c(N)ncnc%12%11)ccc%10C9)cn8)CC7)cn6)CC5)ncc4C3)[C@H](OC)C2)CC(=O)[C@H](C)/C=C(\C)[C@@H](O)[C@@H](OC)C(=O)[C@H](C)C[C@H](C)/C=C/C=C/C=C/1C [Example 62] | – | – | – | ++ (9 > pIC50 ≥ 8) | − (<6) | − (<6)
14 | CO[C@H]1C[C@@H]2CC[C@@H](C)[C@@](O)(O2)C(=O)C(=O)N2CCCC[C@H]2C(=O)O[C@H]([C@H](C)C[C@@H]2CC[C@@H](OC(=O)NCCOCCOCCOCCOCCOCCOCCOCCOCC(=O)N3CCc4cc(Cn5nc(-c6ccc7oc(N)nc7c6)c6c(N)ncnc65)ccc4C3)[C@H](OC)C2)C[C@@H](O)[C@H](C)/C=C(\C)[C@@H](O)[C@@H](OC)C(=O)[C@H](C)C[C@H](C)/C=C/C=C/C=C/1C [Example 72] | – | – | – | +++ (≥9) | +++ (≥8.5) | +++ (≥8.5)
15 | CO[C@H]1C[C@@H]2CC[C@@H](C)[C@@](O)(O2)C(=O)C(=O)N2CCCC[C@H]2C(=O)O[C@H]([C@H](C)C[C@@H]2CC[C@@H](OC(=O)NCCOCCOCCOCCOCCOCCOCCOCCOCCC(=O)N3CCc4cc(Cn5nc(-c6ccc7oc(N)nc7c6)c6c(N)ncnc65)ccc4C3)[C@H](OC)C2)C[C@@H](O)[C@H](C)/C=C(\C)[C@@H](O)[C@@H](OC)C(=O)[C@H](C)C[C@H](C)/C=C/C=C/C=C/1C [Example 75] | – | – | – | +++ (≥9) | +++ (≥8.5) | ++ (8.5 > pIC50 ≥ 7.5)
